Here are results for nine molecules from patent US20060134801A1, “Methods and compositions involving MDA-7” (Board of Regents, The University of Texas System, priority 2003, published 2006).

In one assay the test system is MDA-7 expression in PBMC. Nature of the assay: MDA-7 expression in PBMC (real time RT-PCR, intracellular FACS). Format: cell-based, human. The settings on record: 100 U/ml; 6 hr; resting PBMC. The procedure:
Cells were isolated at the designated times and protein levels measured and RNA isolated. Real time RT-PCR was performed using TaqMan OneStep procedure according to the manufacturers protocol (Applied Biosystems, Foster City Calif.). Gene specific primer/probes for MDA-7 and HPRT were purchased from Applied Biosystems. The reactions were carried out according to manufacturer's protocol using an ABI Prism 7900 HT sequence detection system and the analysis was conducted using Sequence Detection Software version 2.9. MDA-7 protein was detected by intracellular FACs analysis. Cells were treated with Brefeldin A at 10 μg/ml 4 hr prior to harvest to prohibit secretion of the cytokine. Where applicable cells were first surface stained using directly conjugated antibodies and then, to detect intracellular proteins, cells were fixed by treatment with 4% paraformaldehyde and then permeabilized with detergent, n-octyl glucopyranoside at 7 mg/ml. As the control for permeabilization, cells were also stained with a monoclonal antibody directed against the intracellular protein vimentin. Standard protocols were followed for immunofluorescence staining. Immunofluorescence was analyzed on a FACSCalibur with Cell Quest software (BD Immunosciences).
To determine what cytokines may be driving this expression, PBMC were stimulated with IL-2, a major cytokine produced during PHA activation. […]
In general terms: Real-time PCR tracks product formation cycle by cycle.

Another assay relates to A549 cells. Briefly: Radiation clonogenic survival assay. In kind it is cell-based, human. The settings on record: A549 and H1299. The method, then:
In vitro transfection studies for all cell lines were performed by plating 2×10^5 cells in T25 flasks. Forty-eight hours after plating, cells were incubated for 1 hour with purified vector in 1 ml of medium without serum. After 1 hour, fresh medium supplemented with 10% FBS was added to the flask. Serum-free medium was used for mock transfection.
The effectiveness of treatments was assessed by clonogenic assays. Briefly, monolayers of A549, H1299, CCD-16, and MRC-9 cells were treated in T25 flasks as described above, and after various doses of irradiation the cells were trypsinized and counted. Known numbers of cells were then replated in 100 mm culture dishes and returned to the incubator to allow macroscopic colony development.

A further assay relates to HUVECs. Nature of the assay: Clonogenic survival of endothelial cells after irradiation. The note with it: MDA-7 protein 10 ng/ml; angiostatin, endostatin 100 ng/ml; 12 h before irradiation. In kind it is cell-based, human. The procedure: Twelve hours after seeding HUVECs in 4-well plates (Nunc, Roskilde, Denmark), medium was replaced with serum/growth factor-free medium. After serum/growth factor starvation for 12 hours, cells were treated with complete medium containing either MDA-7 protein (10 ng/ml) (removed from cultures of 293 cells), angiostatin (100 ng/ml), or endostatin (100 ng/ml). Twelve hours later, cells were irradiated with ^137CS unit (3.4 Gy/min) at room temperature, trypsinized and counted. Known numbers of cells were replated in 60 mm culture dishes and incubated to allow macroscopic colony development. Colonies were counted after 14 days, and the percent plating efficiency and surviving fractions following given treatments were calculated based on the survival of non-irradiated cells.

The test system of the next assay is HUVEC. Briefly: Endothelial cell differentiation (tube formation) assay on Matrigel. The note with it: for concentration required to significantly inhibit HUVEC tube formation: equimolar comparison; for tube formation in the presence of IL-22R1 antibody: high concentrations, vs PBS. Format: cell-based, human. The method, then: Endothelial cell differentiation (tube formation) assays were done using the in vitro angiogenesis assay kit (Chemicon, Temecula, Calif.). Briefly, HUVEC and HMVEC were grown to 80% confluency, collected, resuspended in growth medium, and plated at a concentration of 2−10^4 cells/well in a 96-well plate coated with Matrigel (Chemicon, Temecula, Calif.). Cells were treated with sMDA-7 protein (1, 5, 10, and 50 ng/ml), or a preparation immunodepleted of sMDA protein for 24 h at 37° C. Cells treated with PBS served as negative controls in these experiments. The ability of sMDA-7 to inhibit tube formation was determined and quantitated by counting the number of tubes under bright-field microscopy.
For experiments involving comparative studies, cells were treated with equimolar concentrations of sMDA-7 (5, 10, and 300 ng/ml), recombinant human endostatin (5.2, 10.4, and 315 ng/ml; Calbiochem, La Jolla, Calif.), recombinant IFN-γ (4.5, 9, and 268 ng/ml; R&D systems, Minneapolis, Minn.) or recombinant IP-10 (2.4, 4.5, and 134 ng/ml; R&D systems, Minneapolis, Minn.) and analyzed for tube formation assay as described above. All samples were tested in duplicate. Experiments were repeated at least 5-6 times.
For receptor blocking studies, HUVEC grown in six-well plates were pretreated with IL-22R1 blocking antibody (1 ng/ml and 5 ng/ml). Following overnight incubation, cells were harvested, washed, and plated in Matrigel coated 96-well plates. Fresh IL-22R1 blocking antibody and sMDA-7 was added to the wells in a 1:1 ratio (1 ng/ml of IL-22R1 antibody:1 ng/ml of sMDA-7) or 1:5 ratio (1 ng/ml of IL-22R1 antibody:5 ng/ml of sMDA-7) and incubated at 37° C. After overnight incubation, the plates were examined for tube formation. All other experimental procedures were the same as described above. […] The relative amount of IL-22R1 used for experiments involving endostatin was 315 ng/ml (1:1 ratio) and 134 ng/ml for experiments involving IP-10 (1:1 ratio). All other experimental procedures were the same as described previously. For blocking studies using anti-IP-10 or anti-IFN-γ neutralizing antibodies (R & D Systems), experiments were conducted as described above for receptor studies except that HUVEC were treated with the appropriate neutralizing antibody (1 μg and 5 μg/ml) prior to treatment with sMDA-7 (300 ng/ml).

The target of a further assay is T1, IL-22R1 on HUVEC (human, UniProt Q8N6P7 16-574).
T1 sequence (looked up): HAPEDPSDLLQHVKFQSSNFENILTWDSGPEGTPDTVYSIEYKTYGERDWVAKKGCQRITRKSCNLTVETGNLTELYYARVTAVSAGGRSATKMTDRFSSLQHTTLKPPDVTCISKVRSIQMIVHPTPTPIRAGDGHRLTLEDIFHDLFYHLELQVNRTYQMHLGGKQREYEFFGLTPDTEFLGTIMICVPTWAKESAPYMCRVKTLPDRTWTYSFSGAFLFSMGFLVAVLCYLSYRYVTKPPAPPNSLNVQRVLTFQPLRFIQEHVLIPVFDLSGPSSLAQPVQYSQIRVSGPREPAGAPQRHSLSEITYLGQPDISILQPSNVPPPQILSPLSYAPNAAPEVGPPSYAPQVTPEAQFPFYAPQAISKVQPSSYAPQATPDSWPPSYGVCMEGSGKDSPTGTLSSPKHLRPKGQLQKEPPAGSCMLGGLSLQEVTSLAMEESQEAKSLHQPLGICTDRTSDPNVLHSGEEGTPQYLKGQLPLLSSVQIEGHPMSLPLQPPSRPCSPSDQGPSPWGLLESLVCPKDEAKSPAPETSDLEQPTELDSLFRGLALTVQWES
Nature of the assay: cell-based or functional assay.

With IL-15: cytokine, the “expression of MDA-7 mRNA and protein” value with MDA-7 expression in PBMC is on record as “stimulated”.

Take `COc1cc(/C=C/C(=O)CC(=O)/C=C/c2ccc(O)c(OC)c2)ccc1O` [curcumin, Curcumin]: the Ad-mda7 radiosensitization result with A549 cells (10 μM) is recorded as “abrogated”.

`COC(=O)Nc1nc2ccc(C(=O)c3cccs3)cc2[nH]1` [Nocodazole]: the “radiosensitivity after G2/M arrest” value in the assay on A549 cells (200 ng/ml) is given as “does not enhance the radiosensitivity”.

In the case of angiostatin, in the assay on HUVECs, the “radiosensitization of HUVECs” value is on record as “produced radiosensitizing effects”.

With IFN-γ: recombinant IFN-γ (R&D systems), in the assay on HUVEC, the “concentration required to significantly inhibit HUVEC tube formation” value amounted to 268 ng/mL.

Consider IP-10: recombinant IP-10 (R&D systems), for which, in the assay on HUVEC, the “concentration required to significantly inhibit HUVEC tube formation” value worked out at 134 ng/mL and the “tube formation in the presence of IL-22R1 antibody” value is “significantly inhibited”.

As to endostatin, in the assay with HUVEC (315 ng/ml), the “inhibition of tube formation over control” value is on record as 40-50%. Besides, in the assay on HUVEC, the “concentration required to significantly inhibit HUVEC tube formation” value is 300 ng/mL and the “tube formation in the presence of IL-22R1 antibody” value was “significantly inhibited”. The “radiosensitization of HUVECs” value in the assay with HUVECs is “produced radiosensitizing effects”.

B1: IL-7: cytokine (protein, UniProt P13232 26-177, looked up)
Interleukin-7: DCDIEGKDGKQYESVLMVSIDQLLDSMKEIGSNCLNNEFNFFKRHICDANKEGMFLFRAARKLRQFLKMNSTGDFDLHLLKVSEGTTILLNCTGQVKGRKPAALGEAQPTKSLEENKSLKEQKKLNDLCFLKRLLQEIKTCWNKILMGTKEH
Take B1: the “expression of MDA-7 mRNA and protein” value in the assay with MDA-7 expression in PBMC is reported as “stimulated”.

B2: secreted MDA-7 protein (soluble, glycosylated, produced by stably transfected 293 cells) (ligand)
chain: AQGQEFHFGPCQVKGVVPQKLWEAFWAVKDTMQAQDNITSARLLQQEVLQNVSDAESCYLVHTLLEFYLKTVFKNYHNRTVEVRTLKSFSTLANNFVLIVSQLQPSQENEMFSIRDSAHRRFLLFRRAFKQLDVEAALTKALGEVDILLTWMQKFYKL
modifications: glycosylated (sites not given)
As for B2, in the assay with IL-22R1 on HUVEC, the “HUVEC tube formation with sMDA-7 (5 ng/ml), restoration by 1 ng/ml IL-22R1 blocking antibody (1:5 ratio)” value is < 60% and the “HUVEC tube formation with sMDA-7 (5 ng/ml), restoration by 5 ng/ml IL-22R1 blocking antibody (1:1 ratio)” value is > 90%.
